Results on 1 substance are retold here after patent US9855320B2, “Angiogenin for treatment of glaucoma” (CHUNG-ANG UNIVERSITY INDUSTRY-ACADEMIC COOPERATION …, priority 2011, dated 2018).

The subject of assay [1] is Schlemm's canal peripheral tissue in anterior chamber angle. Description: H&E staining of Schlemm's canal peripheral tissue in anterior chamber angle of glaucoma model after instillation. Format: in vivo, rat. The note with it: after instillation compared to before instillation.
Assay [2] has as its system nitric oxide (NO) concentration in aqueous humor. Put plainly: NO concentration in aqueous humor after instillation (Griess assay). Format: in vivo, rat. The settings on record: 1 hour after the initial instillation, 50 μg/ml, day-time and night-time test, rank among instillation groups. The procedure: Normal rat models were divided into 4 groups, each group consisting of 6 rats, that is, 12 eyes, and at 8 AM and 8 PM, each group was instilled with angiogenin 50 μg/ml, angiogenin fragment 50 μg/ml, and latanoprost 50 μg/ml, and 1, 3, and 6 hours after instillation, 15 to 20 μl of aqueous humor was extracted from two rats, that is, 4 eyes for each group. For the extraction of aqueous humor, first, rats were anesthetized, and then, corneal dissection was performed in a direction from at 9 o'clock outside each eye toward microkeratome, and then, a capillary tube was brought into contact through a dissection wound to absorb aqueous humor, which was then moved to an eppendroff tube and frozen-preserved at a temperature of −70 degrees. Thereafter, nitric oxide (NO) concentration in aqueous humor was measured by Griess assay (nitric oxide colorimetric assay kit, Biovision, USA). The aqueous humor was diluted 10 times and then mixed with the same amount of griess solution and reacted together for 10 minutes. The reaction product was moved onto a well plate and then, absorbance of nitrate, which is a NO formation reactant, was measured by using spectrophotometer at a wavelength of 540 nm and compared with a reference value to quantify the nitrate.
On the technique in general: Griess reagent forms a coloured azo dye with nitrite.

The test system of assay [3] is chronic intraocular pressure increase rat model. Description: Intraocular pressure in chronic intraocular pressure increase rat model (episcleral venous electric ablation). Format: in vivo. The procedure:
(§1) 0.05 cc/50 g of Tiletimine and Zolazepam-mixed medicament (Zoletil) and Xylazine (Rompum) were mixed at a ratio of 1:1 and then administered to 20 rats by intramuscular injection, thereby anesthetizing the rats. A limbus periphery was divided into four portions, each of which was then subjected to 2 mm dissection at an interval of 90 degrees, and then, two radial conjunctival excisions were performed on upper dissection periphery. […] After surgical isolation of vein, the vein was lifted up by using 3 mm-width spatula to be spaced apart from the peripheral tissue, and then, was subjected to electric ablation while being careful for the peripheral tissue not to have any thermal damage or any mechanical damage due to contact. Intraocular pressure was consecutively measured three or more times by using Tonopen (Solan, Fla., USA), and only reliable intraocular pressure values within 5 percentile were recorded. 10 eyes of 10 rats were daily treated 4 times with angiogenin 10 μl 2 days before test, and even after espisderal venous electric ablation, 4 times a day at time intervals of 6 hours. The other 10 eyes of the rats, as a control, were consecutively treated in the same manner with physiological saline solution 10 μl before and after the ablation. Before the operation, and 3 days, and 1, 2, 4, and 8 weeks after the operation, intraocular pressure was measured, and the rats were sacrificed to extract eyes therefrom, which were then subjected to tissue examination and immunechemical staining with respect to Brn-3a and CD11b, and a reverse transcription polymerase chain reaction was used to measure CD11b value in retinal tissue.

In a further assay the test system is retinal ganglion cell. Put plainly: Retinal ganglion cell density on H-E staining, chronic intraocular pressure increase model. The class given is in vivo, rat. The note with it: 8 weeks after the injury. The procedure: as §1, with “10 eyes of 10 rats were daily treated 4 times with angiogenin 10 μl 2 days before test, and even after espisderal venous electric ablation, 4 times a day at time intervals of 6 hours. The other 10 eyes of the rats, as a control, were consecutively treated in the same manner with physiological saline solution 10 μl before and after the ablation.” left out, “tissue. […]” for “tissue.”

Assay [4] concerns Brn-3a marked retinal ganglion cell. Put plainly: Brn-3a immunochemical staining of retina, chronic intraocular pressure increase model. Format: in vivo, rat. The procedure: as §1, with “10 eyes of 10 rats were daily treated 4 times with angiogenin 10 μl 2 days before test, and even after espisderal venous electric ablation, 4 times a day at time intervals of 6 hours. The other 10 eyes of the rats, as a control, were consecutively treated in the same manner with physiological saline solution 10 μl before and after the ablation.” left out, “tissue. […]” for “tissue.”

Another assay relates to TGF-β. Put plainly: Reverse transcription polymerase chain reaction on injured tissue of corneal chemical burn model, TGF-β. The class given is in vivo, rat. The settings on record: third day and seventh day after keratoconjunctival chemical injury. The procedure: (§2) Three days, and 1, 2, 4, and 8 weeks after injuring, corneal opacity and neoangiogenesis level were assessed in consideration of images of anterior ocular segment, and on the third day and the seventh day, the respective conjunctiva damaged parts were collected and then subjected to a reverse transcription polymerase chain reaction to assay expression of IL-1a, TGF-β, SDF-1, and caspase-3.
(§3) Tissues obtained from chronic intraocular pressure increase model and corneal chemical burn model were frozen, and then cut into small parts by using a fine knife. The tissue parts were treated with 1 ml of TRI reagent (Molecular Research Center, Inc.) and then, tissue and cell were lysed by homogenizer. The respective implication cDNA […] 0.2 mM dNTP, 10×buffer, 10 pmols primer, and 0.2 U Taq polymerase were mixed to obtain a volume of 20 μl, and then, PCR thermal cycler (a machine for PCR) was used for reaction for 5 minutes at 95° C., 40 second at 94° C., 40 seconds at 48 to 64° C., 40 seconds (35 cycles) at 72° C., and 10 minutes at 72° C. The amplified polymerase chain reaction product was identified by 1% agarose gel electrophoresis. β actin was used as a positive control for the polymerase chain reaction, and relative expression morphs of a target gene with respect to β actin expression were compared. […]

The test system of the next assay is caspase-3. Description: Reverse transcription polymerase chain reaction on injured tissue of corneal chemical burn model, caspase-3. Format: in vivo, rat. The note with it: third day and seventh day after keratoconjunctival chemical injury. The procedure: as §2, §3

With “angiogenin: recombinant human angiogenin (R&D systems); 14.4 kDa single chain protein of 123 amino acids, a ribonuclease inducing angiogenesis”, in assay [1], the “diameter and intercellular interval of Schlemm's canal” value is on record as “increased”. Moreover, the “NO concentration increase in aqueous humor” value in assay [2] was “greatest NO concentration increase”. Moreover, the average intraocular pressure came to 21.4±6.2 mmHg in assay [3] (1 week after the treatment, control 27.8±4.1); 20.8±4.0 mmHg in assay [3] (2 weeks after the treatment, control 25±3.0); 23.6±2.0 mmHg in assay [3] (4 weeks after the treatment, control 25.6±1.6); 21.7±3.4 mmHg in assay [3] (8 weeks after the treatment, control 23.0±2.4); 20.6±1.9 mmHg in assay [3] (before test, 10 eyes); 21.2±3.8 mmHg in assay [3] (for 8 weeks (overall average), control 25.4±3.6). This substance displayed an average intraocular pressure in assay [3] (three days after the treatment, control 27.3±2.9) of 20.7±2.6 mmHg. Further, in assay [3] (3 days, and 1, 2, and 4 weeks after the episcleral venous injury), the “average intraocular pressure compared to the control (in words)” value was “significantly lower”. Moreover, the “intraocular pressure difference to the control” value in assay [3] (third day after the treatment (biggest difference)) is recorded as 6.75±0.3 mmHg. The “density of retinal ganglion cell” value in the assay on retinal ganglion cell is “does not change”. The “density of Brn-3a marked retinal ganglion cell” value in assay [4] is on record as “well maintained”. Moreover, the “TGF-β expression compared to the control” value with TGF-β was “less expressed”. In addition, the “caspase-3 expression compared to the control” value in the assay on caspase-3 is “less expressed”.
